{"source": "patent US10076519B2", "about": "(CYTOKINETICS, INC., priority 2010, dated 2018)", "data": [{"system": "rabbit skeletal myofibrils (fast skeletal myofibrils)", "assay": "Activation of fast skeletal myofibrils (PUMA assay, PK/LDH-coupled ATPase at pCa25)", "format": "biochemical", "details": "AC1.4 determined according to the procedure of Example 39; reported as class symbols", "in_short": "(§1)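 Detergent-washed rabbit psoas myofibrils (~90% fast fibres, calcium-regulated) assayed at calcium giving 25% of maximal ATPase rate (pCa25). ADP turnover coupled via pyruvate kinase/lactate dehydrogenase to NADH oxidation, read at 340 nm. Buffer 12 mM PIPES, 2 mM MgCl2, 1 mM DTT, pH 6.8; AC1.4 values derived.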", "values": [{"smiles": "CS(=O)(=O)N1CC(CNc2ccc(-c3ccc4[nH]ncc4c3)nn2)(c2ncccc2F)C1", "note": "[3-(3-fluoro(2-pyridyl))-3-{[(6-(1H-indazol-5-yl)pyridazin-3-yl)amino]methyl}-1-(methylsulfonyl)azetidine]", "Mean AC1.4": "D (D=>20 uM)"}, {"smiles": "CC(C)(CNc1nnc(-c2cccc(C(N)=O)c2)cc1C#N)c1ccc(F)cc1", "note": "[3-(5-cyano-6-{[2-(4-fluorophenyl)-2-methylpropyl]amino}pyridazin-3-yl)benzamide]", "Mean AC1.4": "C (C=10-20 uM)"}, {"smiles": "CC(C)(CNc1ccc(-c2cccc(C(N)=O)c2)nn1)c1ccc(F)cc1F", "note": "[3-(6-{[2-(2,4-difluorophenyl)-2-methylpropyl]amino}pyridazin-3-yl)benzamide]", "Mean AC1.4": "B (B=1-10 uM)"}, {"smiles": "CC(C)(CNc1ccc(-c2cccc(C(N)=O)c2)nn1)c1ccccc1Cl", "note": "[3-(6-{[2-(2-chlorophenyl)-2-methylpropyl]amino}pyridazin-3-yl)benzamide]", "Mean AC1.4": "A (A=<1 uM)"}, {"smiles": "CCC(CNc1ccc(-c2cccc(C(N)=O)c2)nn1)c1ccccc1F", "note": "(stereo not shown) [3-(6-{[2-(2-fluoro-phenyl)butyl]amino}pyridazin-3-yl)benzamide]", "Mean AC1.4": "B (B=1-10 uM)"}, {"smiles": "CC(C)(CNc1ccc(-c2cccc(C(N)=O)c2)nn1)c1ccccc1F", "note": "[3-(6-{[2-(2-fluorophenyl)-2-methylpropyl]amino}pyridazin-3-yl)benzamide]", "Mean AC1.4": "A (A=<1 uM)"}, {"smiles": "COCCC(CNc1ccc(-c2cccc(C(N)=O)c2)nn1)c1ccccc1F", "note": "(stereo not shown) [3-(6-{[2-(2-fluorophenyl)-4-methoxybutyl]amino}pyridazin-3-yl)benzamide]", "Mean AC1.4": "D (D=>20 uM)"}, {"smiles": "CC(C)(CNc1ccc(-c2cccc(C(N)=O)c2)nn1)c1ncc(F)cc1F", "note": "[3-(6-{[2-(3,5-difluoro(2-pyridyl))-2-methylpropyl]amino}pyridazin-3-yl)benzamide]", "Mean AC1.4": "B (B=1-10 uM)"}]}, {"system": "rabbit skeletal myofibrils (fast skeletal myofibrils)", "assay": "Activation of fast skeletal myofibrils (PUMA assay, PK/LDH-coupled ATPase at pCa25)", "format": "biochemical", "details": "median AC1.4 class, procedure of Example 39", "in_short": "as §1", "values": [{"smiles": "O=C(NCc1cnc(-c2ccc(NCC3(c4ncccc4F)CCC3)nn2)s1)c1cn[nH]n1", "note": "[2H-1,2,3-triazol-4-yl-N-({2-[6-({[(3-fluoro(2-pyridyl))cyclobutyl]methyl}ami-no)pyridazin-3-yl](1,3-thiazol-5-yl)}methyl)carboxamide]", "Mean AC1.4": "A (A=<1 uM)"}, {"smiles": "CC(C)(Nc1ccc(-c2cc(C(N)=O)ccc2F)nn1)c1ncccc1Cl", "note": "[3-(6-{[1-(3-chloro(2-pyridyl))-isopropyl]amino}pyridazin-3-yl)-4-fluorobenzamide]", "Mean AC1.4": "B (B=1-10 uM)"}, {"smiles": "CC(C)(Nc1ccc(-c2cccc(C(N)=O)c2)nn1)c1cccc(F)c1", "note": "[3-(6-{[1-(3-fluorophenyl)-isopropyl]amino}pyridazin-3-yl)benzamide]", "Mean AC1.4": "B (B=1-10 uM)"}, {"smiles": "CC(C)(Nc1ccc(-c2cccc(C(N)=O)c2)nn1)c1ccc(F)cc1", "note": "[3-(6-{[1-(4-fluorophenyl)-isopropyl]amino}pyridazin-3-yl)benzamide]", "Mean AC1.4": "B (B=1-10 uM)"}, {"smiles": "CC(C)(CNc1ccc(-c2cc(C(N)=O)ccc2F)nn1)c1ncccc1Cl", "note": "[3-(6-{[2-(3-chloro(2-pyridyl))-2-methylpropyl]amino}pyridazin-3-yl)-4-fluorobenzamide]", "Mean AC1.4": "A (A=<1 uM)"}, {"smiles": "CC(C)(CNc1ccc(-c2cc(C#N)ccc2F)nn1)c1ncccc1Cl", "note": "[3-(6-{[2-(3-chloro(2-pyridyl))-2-methylpropyl]amino}pyridazin-3-yl)-4-fluorobenzenecarbonitrile]", "Mean AC1.4": "B (B=1-10 uM)"}, {"smiles": "CC(C)(CNc1ccc(-c2cccc(C(N)=O)c2)nn1)c1ncccc1Cl", "note": "[3-(6-{[2-(3-chloro(2-pyridyl))-2-methylpropyl]amino}pyridazin-3-yl)benzamide]", "Mean AC1.4": "A (A=<1 uM)"}]}, {"system": "rabbit skeletal myofibrils (fast skeletal myofibrils)", "assay": "Activation of fast skeletal myofibrils (PUMA assay, PK/LDH-coupled ATPase at pCa25)", "format": "biochemical", "details": "median AC1.4 reported as class; procedure of Example 39", "in_short": "as §1", "values": [{"smiles": "NC(=O)c1coc(NC(=O)c2ccc(NCC3(c4ncccc4F)CCC3)nn2)n1", "note": "[2-{[6-({[(3-fluoro-2-pyridyl)cyclobutyl]methyl}amino)pyr-idazin-3-yl]carbonylamino}-1,3-oxazole-4-carboxamide]", "Mean AC1.4": "D (D=>20 uM)"}]}]}
